# Measured values taken from patent publication US4720495A, “Benzo[ij]quinolizine-2-carboxylic acids useful for treating bacterial infection” (priority 1985, dated 1988).
# Key:
# [1] = system: Escherichia coli NIHJ JC-2; assay: minimal inhibitory concentration, in vitro antibacterial activity; format: cell-based; conditions: NIHJJC2, 37° C., 20 hours
# Protocol: (§1) The in vitro antibacterial activities of typical examples of the present compounds [I] were evaluated in terms of the minimal inhibitory concentration defined as the lowest concentration of the compound preventing the bacterial growth. The Gram-positive bacteria used as test microorganisms included Bacillus subtilis, Staphylococcus aureus and Streptococcus faecalis, and the Gram-negative bacteria used as test microorganisms included Escherichia coli, Enterobacter cloacae, Klebsiella pneumoniae, Proteus vulgaris, Pseudomonas aeruginosa, Serratia marcescens and Salmonella enteritidis. The minimal inhibitory concentration (cultured at 37° C. for 20 hours) was determined according to the standard method prescribed by the Japan Society of Chemotherapy (CHEMOTHERAPY, Vol. 29, No. 1, p. 76, 1981). The following compounds were used as typical examples of the present compounds [I]. At the end of the chemical name of each compound, its tentative designation is given in Parentheses.
# (§2) For purposes of comparison, the in vitro antibacterial activities of ofloxacin, OPC-7241 and compound α were evaluated according to the same method as described above and the test results thus obtained are also shown in Table 1.
# [2] = system: Bacillus subtilis ATCC 6633; assay: as above; format: cell-based; conditions: ATCC6633, 37° C., 20 hours
# Protocol: as §1, §2
# [3] = system: Staphylococcus aureus FDA 209P JC-1; assay: as above; format: cell-based; conditions: FDA209P, 37° C., 20 hours
# Protocol: as §1, §2
# [4] = system: Proteus vulgaris ATCC 13315; assay: as above; format: cell-based; conditions: ATCC13315, 37° C., 20 hours
# Protocol: as §1, §2
# [5] = system: Klebsiella pneumoniae PCI 602; assay: as above; format: cell-based; conditions: PCI602, 37° C., 20 hours
# Protocol: as §1, §2
# [6] = system: Pseudomonas aeruginosa NCTC 10490; assay: as above; format: cell-based; conditions: NCTC10490, 37° C., 20 hours
# Protocol: as §1, §2
# Escherichia coli CI-304 = assay: as above; format: cell-based; conditions: CI304, 37° C., 20 hours
# Protocol: as §1, §2
# [7] = system: Serratia marcescens IAM 1184; assay: as above; format: cell-based; conditions: IAM1184, 37° C., 20 hours
# Protocol: as §1, §2
# [8] = system: Salmonella enteritidis G14; assay: as above; format: cell-based; conditions: Salmonella enterica, 37° C., 20 hours
# Protocol: as §1, §2
# Enterobacter cloacae 963 = assay: as above; format: cell-based; conditions: 37° C., 20 hours
# Protocol: as §1, §2
# [9] = system: Streptococcus faecalis AHU 1085; assay: as above; format: cell-based; conditions: Enterococcus faecalis, AHU1085, 37° C., 20 hours
# Protocol: as §1, §2
# [10] = enteral absorbability, serum concentration after oral administration to mice; format: in vivo; conditions: mouse, 50 mg/kg orally, fasted male ICR mice; for concentration at 0.5 h: 30 min.
# Protocol: Using male ICR mice fasted overnight (weighing 20±1 g), the enteral absorbability of some typical examples of the present compounds [I] was tested. This test was carried out by administering 50 mg/kg of each test compound orally to mice and determining its serum concentration 30 minutes, 1 hour, 2 hours and 4 hours after administration. Five mice were used for each test point. At each test point, whole blood was collected from the mice by cardiac puncture and used to prepare serum samples. Concentrations of the test compounds in serum samples were determined by the paper disc method using Escherichia coli CI-304 as the test microorganism.
# For purposes of comparison, the enteral absorbability of ofloxacin and OPC-7241 was tested in the same manner as described above and the results thus obtained are also shown in Table 2.
SMILES,MIC [1],MIC [2],MIC [3],MIC [4],MIC [5],MIC [6],MIC (Escherichia coli CI-304),MIC [7],MIC [8],MIC (Enterobacter cloacae 963),MIC [9],concentration at 0.5 h [10],concentration at 1 h [10],concentration at 2 h [10],concentration at 4 h [10]
"CC1CN(c2c(Cl)cc3c(=O)c(C(=O)O)cn4c3c2C=CC4C)CCN1 (stereo not shown) [Compound 31, 9-Chloro-5-methyl-8-(3-methyl-1-piperazinyl) -1-oxo-1H, 5H-benzo[ij]quinolizine-2-carboxylic acid]",0.1 µg/mL,0.2 µg/mL,0.2 µg/mL,0.1 µg/mL,0.1 µg/mL,1.56 µg/mL,0.2 µg/mL,1.56 µg/mL,1.56 µg/mL,0.2 µg/mL,0.78 µg/mL,13800 ng/mL,12700 ng/mL,8400 ng/mL,5000 ng/mL
"CC1CN(c2c(F)cc3c(=O)c(C(=O)O)cn4c3c2C(=O)CC4C)CCN1C.Cl.O (stereo not shown) [Compound 38, 9-fluoro-5-methyl-8-(3,4-dimethyl-1-piperazinyl)-6,7-dihydro-1,7-dioxo-1H,5H-benzo[ij]quinolizine-2-carboxylic acid hydrochloride monohydrate]",0.2 µg/mL,0.1 µg/mL,0.78 µg/mL,0.1 µg/mL,0.1 µg/mL,1.56 µg/mL,0.1 µg/mL,1.56 µg/mL,0.78 µg/mL,0.2 µg/mL,0.78 µg/mL,26700 ng/mL,24100 ng/mL,13500 ng/mL,9000 ng/mL
"CC1CC(=O)c2c(N3CCN(C)CC3)c(F)cc3c(=O)c(C(=O)O)cn1c23.Cl.O (stereo not shown) [Compound 35, 9-Fluoro-5-methyl-8-(4-methyl-1-piperazinyl) -6,7-dihydro-1,7-dioxo-1H, 5H-benzo[ij]quinolizine-2-carboxylic acid hydrochloride monohydrate]",0.2 µg/mL,0.1 µg/mL,0.39 µg/mL,0.2 µg/mL,0.1 µg/mL,0.78 µg/mL,0.1 µg/mL,1.56 µg/mL,0.78 µg/mL,0.2 µg/mL,0.78 µg/mL,24500 ng/mL,22000 ng/mL,11800 ng/mL,8500 ng/mL
"CC1CC(=O)c2c(N3CCN(C)CC3)c(Cl)cc3c(=O)c(C(=O)O)cn1c23 (stereo not shown) [Compound 7, 9-Chloro-5-methyl-8-(4-methyl-1-piperazinyl)-6,7-dihydro-1,7-dioxo-1H, 5H-benzo[ij]quinolizine-2-carboxylic acid]",0.1 µg/mL,0.1 µg/mL,0.39 µg/mL,0.1 µg/mL,0.1 µg/mL,0.78 µg/mL,0.1 µg/mL,3.13 µg/mL,0.78 µg/mL,0.2 µg/mL,1.56 µg/mL,–,–,–,–
"CC1CN(c2c(F)cc3c(=O)c(C(=O)O)cn4c3c2C(=O)CC4C)CC(C)N1 (stereo not shown) [Compound 11, 9-Fluoro-5-methyl-8-(3,5-dimethyl-1-piperazinyl) -6,7-dihydro-1,7-dioxo-1H, 5H-benzo[ij]quinolizine-2-carboxylic acid]",0.2 µg/mL,0.1 µg/mL,0.78 µg/mL,0.39 µg/mL,0.1 µg/mL,1.56 µg/mL,0.1 µg/mL,3.13 µg/mL,0.78 µg/mL,0.2 µg/mL,3.13 µg/mL,20800 ng/mL,15800 ng/mL,7200 ng/mL,5300 ng/mL
"CCN1CCN(c2c(Cl)cc3c(=O)c(C(=O)O)cn4c3c2C(=O)CC4C)CC1 (stereo not shown) [Compound 9, 9-Chloro-5-methyl-8-(4-ethyl-1-piperazinyl) -6,7-dihydro-1,7-dioxo-1H, 5H-benzo[ij]quinolizine-2-carboxylic acid]",0.2 µg/mL,0.2 µg/mL,0.39 µg/mL,0.2 µg/mL,0.1 µg/mL,0.78 µg/mL,0.1 µg/mL,3.13 µg/mL,0.78 µg/mL,0.2 µg/mL,1.56 µg/mL,20200 ng/mL,15900 ng/mL,7700 ng/mL,4500 ng/mL
"CC1C=Cc2c(N3CCN(C)CC3)c(F)cc3c(=O)c(C(=O)O)cn1c23 (stereo not shown) [Compound 19, 9-Fluoro-5-methyl-8-(4-methyl-1-piperazinyl) -1-oxo-1H, 5H-benzo[ij]quinolizine-2-carboxylic acid]",0.39 µg/mL,0.1 µg/mL,0.39 µg/mL,0.1 µg/mL,0.1 µg/mL,0.78 µg/mL,0.2 µg/mL,1.56 µg/mL,0.78 µg/mL,0.78 µg/mL,1.56 µg/mL,–,–,–,–
"CC1C=Cc2c(N3CCN(C)CC3)c(F)cc3c(=O)c(C(=O)O)cn1c23.Cl (stereo not shown) [Compound 37, 9-Fluoro-5-methyl-8-(4-methyl-1-piperazinyl) -1-oxo-1H, 5H-benzo[ij]quinolizine-2-carboxylic acid hydrochloride]",0.39 µg/mL,0.1 µg/mL,0.39 µg/mL,0.1 µg/mL,0.1 µg/mL,0.78 µg/mL,0.2 µg/mL,1.56 µg/mL,0.78 µg/mL,0.78 µg/mL,1.56 µg/mL,–,–,–,–
"CC1CN(c2c(F)cc3c(=O)c(C(=O)O)cn4c3c2C(=O)CC4C)CC(C)N1C.Cl.O (stereo not shown) [Compound 39, 9-Fluoro-5-methyl-8-(3,4,5-trimethyl-1-piperazinyl) -6,7-dihydro-1,7-dioxo-1H, 5H-benzo[ij]quinolizine-2-carboxylic acid hydrochloride monohydrate]",0.39 µg/mL,0.2 µg/mL,0.39 µg/mL,0.2 µg/mL,0.1 µg/mL,3.13 µg/mL,0.2 µg/mL,1.56 µg/mL,0.78 µg/mL,0.39 µg/mL,0.78 µg/mL,–,–,–,–
"CC1C=Cc2c(N3CCN(C)CC3)c(Cl)cc3c(=O)c(C(=O)O)cn1c23 (stereo not shown) [Compound 24, 9-Chloro-5-methyl-8-(4-methyl-1-piperazinyl)-1-oxo-1H,5H-benzo[ij]quinolizine-2-carboxylic acid]",0.39 µg/mL,0.2 µg/mL,0.2 µg/mL,0.1 µg/mL,0.1 µg/mL,1.56 µg/mL,0.2 µg/mL,1.56 µg/mL,1.56 µg/mL,0.2 µg/mL,0.78 µg/mL,–,–,–,–
